US11014902B2, “MYC G-quadruplex stabilizing small molecules and their use” (The United States of America, as represented by the …, priority 2015, dated 2021)
Where two headings read alike, the source gives them in different places.

Tests used:
[1] = test system: c-MYC expression in L363 cells; assay: Inhibition of c-MYC expression in L363 cells (Peggy); type: cell-based, human; conditions: for Peggy (% c-Myc expression compared to untreated): L363 cells; for activity at 10 µM / Peggy (% c-Myc expression compared to untreated): at 10 μM
Description: FIG. 10 illustrates an exemplary procedure for generating analogs of Compound 1. The amine group of Compound 1 can be varied in reductive aminations to provide additional analogs. […] The table also provides an indication of an exemplary commercial source for the compounds, or (if applicable) an indication that the compound is new.

L363 cells = assay: L363 cell viability (MTS); type: cell-based, human; conditions: for IC50: read-out: IC50; for viability at 10 µM: L-363, L363 cells
Description: Since two thirds of multiple myeloma cases involve deregulated c-MYC expression (Kuehl and Bergsagel, Blood 2012, 120, 2351; Shou, et al., Proc Natl Acad Sci USA 2000, 97, 228), we elected to evaluate the cell viability effects of Compound 1 in a multiple myeloma model. […] This suppression was maintained over 72 hours, which is notable given the characteristic rapid replenishment of the protein—a phenomenon that complicates targeting c-Myc at the protein level (FIG. 4C). This effect was maintained across a genetically diverse set of 4 multiple myeloma lines. We observed decreases in c-MYC translation in all lines tested, and this effect also correlated with decreases in viability (FIG. 4D).
Human multiple myeloma and Burkitt's Lymphoma cell lines L363, CA46, MM-1R, KMS-11, and MM-1S were cultured and authenticated as previously described (Simmons, et al., Molecular oncology 2014, 8, 261). All plasma derived cell lines were cultured in RPMI-1640 (2 mM L-glutamine, 10% fetal bovine serum (FBS), 100 U/ml penicillin, 100 μg/ml streptomycin: Gibco) and incubated at 37° C. with 5% CO2. Viability experiments were performed in quadruplicate on 96-well plates (Costar) at designated time and dose points. MTS reagent was then directly added, incubated at 37° C. for 90 min, and absorbance of MTS formazan was read at 500 nm on an Omega 640 spectrophotometer. Percentage cell viability was normalized to the absorbance of untreated (DMSO) wells. In the case of cells harvested for their protein or RNA, pellets were flash frozen and stored at −80° C. overnight prior to use. […]

[2] = test system: c-MYC G4 DNA (biotin-labeled Pu22 G-quadruplex); assay: Surface plasmon resonance (SPR); type: binding; conditions: same experiment as Compound 1
Description: In order to quantitatively assess the binding affinity of Compound 1 with the c-MYC G4, surface plasmon resonance (SPR) experiments (De Crescenzo, et al., Cell Mol Bioeng 2008, 1, 204) were performed using a biotinylated c-MYC G4 oligonucleotide. The oligonucleotide was immobilized to a streptavidin-coated chip, and binding was measured as a function of concentration. (FIG. 2). […] Furthermore, Compound 1 interacts with quadruplex DNA through a reversible binding interaction, and rapid, complete dissociation can be observed in the sensogram (FIG. 2C).
SPR experiments were performed with a Biacore T200 (GE Healthcare). […] The c-MYC DNA was then captured (FC2: 1245 Ru) on a Series S Sensor CM5 Chip (GE Healthcare) with amine-coupled Neutravidin (FC1: 4466 Ru, FC2: 5458 Ru). Single Cycle Kinetics (SCK) experiments were carried out with five injections of increasing concentration of analyte solution, which was prepared by a three-fold serial dilution of compound with buffer (10 mM Tris pH 7.5, 100 mM KCl, 3 mM EDTA) containing 3% DMSO. Binding analysis was conducted at a flow rate of 30 μL/min at 25° C. In each run, the association phase and the subsequent dissociation phase were monitored for 1 min and 10 min, respectively. Prior to each compound injection, three buffer injections were made. […]

[3] = test system: MYC expression in L363 cells; assay: Gene expression analysis (Nanostring, qPCR), MYC; type: cell-based, human; conditions: L363 cells, 48 hours; 10 μM BRACO-19, 10 μM Compound 1, 7.5 μM Compound 23
Description: (§1) Gene expression analysis was performed on a panel of 770 cancer-associated genes in a multiplexed (nanostring) transcriptional assay. In addition to c-MYC itself, several c-Myc target genes were included in the panel, as were a number of other quadruplex-driven genes. […] Additionally, a third data set was collected comparing Compound 1 treatment to JQ-1 (a BET-bromodomain inhibitor) and quarfloxin (another quadruplex-binding small molecule).
(§2) The effects of Compound 1 on a number of known quadruplex-driven genes in the panel were examined further (FIG. 6). Expression levels of MYC, RB1, VEGFA, KRAS, and HIF1α, all of which are reported to be under the control of promoter G4s, and are expressed in L363 cells, were included in the panel of genes evaluated by Nanostring as discussed above. […] These changes in gene expression are in line with biophysical measurements of compound affinity. Corresponding data showing similar results is presented for Compounds 1 and 23 in FIGS. 14A and 14B. […] These observations further highlight the ability of Compound 1 and Compound 23 to specifically target the expression of c-Myc and related pathways.
(§3) The phenotype for c-MYC genetic knockdown in multiple myeloma was achieved through lentiviral transduction of shRNA for c-MYC, derived from the spinoculation of 293T cells and plasmids grown in STBL3 E. coli, and isolated with the Qiagen Plasmid Midi Kit. Aliquots of the plasmids were generously provided by Art Shaffer. RNA of treated myeloma cells at designated time points was isolated with the Qiagen RNeasy kit, and used with the nCounter Human Cancer Reference Kit (NanoString Technologies), surveying changes in expression for […] cancer-related human genes and 6 reference genes. Quantitative changes in expression were analyzed and grouped in the form of a heat map using the programming language, R. All other quantitative statistical packing was performed in GraphPad Prism.

[4] = test system: RB1, VEGFA, KRAS, HIF1α, BCL2 expression in L363 cells; assay: Gene expression analysis (Nanostring, qPCR), other G4-associated genes; type: cell-based, human; conditions: L363 cells, 48 hours; 10 μM BRACO-19, 10 μM Compound 1, 7.5 μM Compound 23
Description: as §1, §2, §3

[5] = Homo sapiens, L-363, L363 cells, read-out: Peggy (% c-Myc expression compared to untreated)
[6] = Homo sapiens, L-363, viability of L363 cells

SMILES	activity at 10 µM [1, 5]	IC50 (L363 cells; [6])	viability at 10 µM (L363 cells; Homo sapiens)	other results
COc1ccc(NC(=O)c2c(C)oc3ccc(O)c(CN4CCCCCC4)c23)cc1 [Compound 7]	81%	7.2 µM	–	–
Cc1ccc(NC(=O)c2c(C)oc3ccc(O)c(CN4CCN(C)CC4)c23)cc1 [Compound 2]	72%	–	95%	–
Cc1oc2ccc(O)c(CN3CCCC3)c2c1C(=O)Nc1ccccc1 [Compound 9]	96%	–	100%	–
Cc1oc2ccc(O)c(CNC3CC4CCC3CC4)c2c1C(=O)Nc1ccc(C(F)(F)F)cc1 (stereo not shown) [Compound 34]	–	9.83 µM	–	–
Cc1ccc(NC(=O)c2c(C)oc3cccc(CN4CCCCCC4)c23)cc1 [Compound 15]	80%	–	53%	–
Cc1ccccc1NC(=O)c1c(C)oc2ccc(O)c(CN3CCCCCC3)c12 [Compound 4]	73%	–	75%	–
Cc1oc2ccc(O)c(CN3CCC(C)CC3)c2c1C(=O)Nc1cccc(C(F)(F)F)c1 [Compound 12]	–	3.4 µM	–	Peggy (% c-Myc expression compared to untreated) [1]: 43% (at 10 μM)
Cc1oc2ccc(O)c(CN3CC4CCC3C4)c2c1C(=O)Nc1ccc(C(F)(F)F)cc1 (stereo not shown) [Compound 32]	–	–	100%	–
Cc1oc2ccc(O)c(CN3CCCCCC3)c2c1C(=O)Nc1cccc(Cl)c1C [Compound 6]	45%	4.9 µM	–	–
Cc1oc2ccc(O)c(CN3CCC[C@H]3C)c2c1C(=O)Nc1ccc(C(F)(F)F)cc1 [Compound 28]	–	6.84 µM	–	–
Cc1oc2ccc(O)c(CN3CCCCCC3)c2c1C(=O)NC1CCCCC1 [Compound 8]	76%	–	–	–
CCOC(=O)c1c(-c2ccccc2)oc2ccc(O)c(CN3CCCCCC3)c12 [Compound 10]	37%	7.1 µM	–	–
Cc1oc2ccc(O)c(CNC3CC4CCC3C4)c2c1C(=O)Nc1ccc(C(F)(F)F)cc1 (stereo not shown) [Compound 33]	–	–	100%	–
Cc1oc2ccc(O)c(CN3CCC[C@@H]3C)c2c1C(=O)Nc1ccc(C(F)(F)F)cc1 [Compound 29]	–	4.45 µM	–	–
Cc1oc2ccc(O)c(CN3CCCCCC3)c2c1C(=O)Nc1cccc(C(F)(F)F)c1 [Compound 13]	12%	3.3 µM	–	–
Cc1oc2ccc(O)c(CNC3CC4CCC3CC4)c2c1C(=O)Nc1ccc(C(F)(F)F)cc1 (stereo not shown) [Compound 35]	–	–	100%	–
CN1CCC[C@H]1CCNC(=O)c1cn2c3c(c(N4CCC(c5cnccn5)C4)c(F)cc3c1=O)Oc1cc3ccccc3cc1-2 (stereo partly shown) [Quarfloxin, reference compound]	–	–	–	binding (SPR) [2]: no evidence of binding
Cc1ccc(NC(=O)c2c(C)oc3ccc(OS(=O)(=O)C(F)(F)F)c(CN4CCCCCC4)c23)cc1 [Compound 16]	112%	–	70%	–

SMILES	activity at 10 µM [1, 5]	IC50 (L363 cells; [6])	viability at 10 µM (L363 cells; Homo sapiens)	other results
Cc1oc2ccc(O)c(CN3CCCC[C@@H]3C)c2c1C(=O)Nc1ccc(C(F)(F)F)cc1 [Compound 27]	–	25.8 µM	–	–
Cc1oc2ccc(O)c(CN3CCC(C)CC3)c2c1C(=O)Nc1cccc(C(F)(F)F)c1 [Compound 20]	–	–	–	Peggy (% c-Myc expression compared to untreated) [1]: 1.4% (at 10 μM); IC50 (L363 cells; viability of L363 cells): 3.8 µM
Cc1oc2ccc(O)c(CN3CCCCC3C)c2c1C(=O)Nc1cccc(C(F)(F)F)c1 (stereo not shown) [Compound 19]	0.56%	3.8 µM	–	–
Cc1oc2ccc(O)c(CN3CCC3)c2c1C(=O)Nc1cccc(C(F)(F)F)c1 [Compound 21]	74%	> 12 µM	–	–
CCOC(=O)c1c(C)n(C)c2ccc(O)c(CN3CCC(C)CC3)c12 [Compound 11]	69%	–	89%	–
Cc1oc2ccc(O)c(CCCN3CCCCCC3)c2c1C(=O)Nc1ccc(C(F)(F)F)cc1 [Compound 31]	–	–	100%	–
Cc1oc2ccc(O)c(CN3CCC3)c2c1C(=O)Nc1ccc(C(F)(F)F)cc1 [Compound 22]	27%	–	100%	–
Cc1ccccc1NC(=O)c1c(C)oc2ccc(O)c(CN3CCCCC3)c12 [Compound 5]	89%	–	85%	–
Cc1oc2ccc(O)c(CN3CCCC3)c2c1C(=O)Nc1cccc(C(F)(F)F)c1 [Compound 24]	–	7.8 µM	–	activity at 6 µM ([1]; Homo sapiens, L-363, L363 cells, at 6 μM, read-out: Peggy (% c-Myc expression compared to untreated)): 63%
Cc1oc2ccc(O)c(CN3CCC(C)CC3)c2c1C(=O)Nc1ccc(C(F)(F)F)cc1 [Compound 26]	–	11.4 µM	–	–
CN(C)c1ccc(Nc2c3ccc(NC(=O)CCN4CCCC4)cc3nc3cc(NC(=O)CCN4CCCC4)ccc23)cc1 [BRACO-19, reference compound]	–	–	–	c-Myc expression (qPCR) [3]: reduced c-Myc expression; expression of other G-quadruplex containing genes (qPCR) [4]: minimally affecting expression of other G-quadruplex containing genes
Cc1ccc(NC(=O)c2c(C)oc3ccc(O)c(CN4CCCCCC4)c23)c(C)c1 [Compound 3]	52%	6.3 µM	–	–
Cc1ccc(NC(=O)c2c(C)oc3ccc(O)cc23)cc1 [Compound 14]	106%	–	84%	–
Cc1oc2ccc(O)c(CN3CCCCC3)c2c1C(=O)Nc1cccc(C(F)(F)F)c1 [Compound 18]	6.5%	5.2 µM	–	–
Cc1oc2ccc(O)c(CN3CCCC3)c2c1C(=O)Nc1ccc(C(F)(F)F)cc1 [Compound 25]	32%	1.6 µM	–	–
Cc1oc2ccc(O)c(CCN3CCCCCC3)c2c1C(=O)Nc1ccc(C(F)(F)F)cc1 [Compound 30]	–	38.2 µM	–	–
Cc1oc2ccc(O)c(CN3CCN(C)CC3)c2c1C(=O)Nc1cccc(C(F)(F)F)c1 [Compound 17]	68%	> 12 µM	–	–
